Laboratory results taken from patent publication US11072635B2, “Macrocyclic broad spectrum antibiotics” (priority 2015, dated 2021).
Values after ≈ are worked out from the molar mass of the structure shown. Like-named read-outs stand apart in the source and are kept apart here.

Assays:
[1] = system: Escherichia coli MC4100 harboring the IMP4213 (E. coli IMP); assay: microbe, parasite or virus in culture; format: cell-based; details: 22 h, read-out: MIC (μg/mL) E. coli IMP
Experimental: (§1) In vitro antimicrobial activity of each compound was determined by measuring minimal inhibitor concentrations (MICs) using the broth micro-dilution technique as approved by the Clinical and Laboratory Standards Institute (CLSI) (Methods for Dilution Antimicrobial Susceptibility Tests for Bacteria that Grow Aerobically; Approved Standard—Eighth Edition. CLSI document M07-A8. Wayne, Pa.: Clinical and Laboratory Standards; 2009). Antibacterial activity was measure against three strains of bacteria: a Methicillin Resistant Staphylococcus aureus strain USA 300, NRS384 (S. aureus); a strain of Escherichia coli MC4100 harboring the IMP4213 (E. coli IMP), which results in increased outer-membrane permeability (B Martin and Silhavy T. Imp/OstA is required for cell envelope biogenesis in Escherichia coli. (2002) Molecular Microbiology, 45(5), 1289-1302), and Escherichia coli ATCC 25922 (E. coli), a clinically relevant Gram-negative strain. Cells were inoculated onto plates of Trypyticase Soy Agar or Luria Agar respectively and grown at 35° C. for 20 hours. Inocula suspensions were prepared by scraping cells into 1 mL of testing media (cation adjusted Mueller Hinton Broth supplemented with 0.002% v/v Tween-80) and diluting to a final OD600 nm of 0.01.
(§2) Test compounds were prepared in DMSO at a concentration of 10 mg/mL. […] In protocol 2, the compound stocks were diluted into testing media at a concentration of 4 μg/mL and serial 2-fold dilutions were made in the same media, in 96-well U bottom microtiter dishes, for a total of 10 compound concentrations. In protocol 3, compound stocks were diluted into testing media at a concentration of 0.5 μg/mL, with serial 2-fold dilutions conducted as described above. […] Inocula suspensions were added to the 2-fold serial dilutions of test compounds to a final density of OD OD600 nm of 0.0005 and incubated at 35° C. for 22 hours.

[2] = system: Escherichia coli ATCC 25922 (E. coli); assay: Minimum inhibitory concentration, broth micro-dilution (CLSI); format: cell-based; details: read-out: MIC (μg/mL) E. coli
Experimental: Cells were inoculated onto plates of Trypyticase Soy Agar or Luria Agar respectively and grown at 35° C. for 20 hours. Inocula suspensions were prepared by scraping cells into 1 mL of testing media (cation adjusted Mueller Hinton Broth supplemented with 0.002% v/v Tween-80) and diluting to a final OD600 nm of 0.01.
as §2

[3] = system: Methicillin Resistant Staphylococcus aureus strain USA 300, NRS384 (S. aureus); assay: as above; format: cell-based
Experimental: as §1, §2

[4] = biological target: T1, SpsB (Staphylococcus aureus signal peptidase) (Staphylococcus aureus, UniProt P0A070); assay: Whole-cell SpsB biochemical screening assay (kinetic fluorogenic enzyme activity)
T1 construct: a suspension of Staphylococcus aureus cells as a source of SpsB instead of recombinant SpsB protein; endogenous in cells; host or cells: S. aureus, USA300 background, overexpressing SpsB (whole-cell suspension)
Experimental: A kinetic fluorogenic enzyme activity assay was used to assess inhibition of SpsB (Staphylococcus aureus signal peptidase) activity and IC50s were determined. This assay uses a suspension of Staphylococcus aureus cells as a source of SpsB instead of recombinant SpsB protein.
Cell preparation: Luria broth (LB) was inoculated with S. aureus (USA300 background, overexpressing SpsB) and shaken at 37° C. until an OD600 nm of 1.5-2.0 was reached (˜4 hr). The culture was then diluted to an OD600 nm of 1.0 with LB, aliquoted and centrifuged at 10,000×g for 2 mins. The supernatant was removed and the pellet was resuspended in phosphate buffer (1×PBS, 12.5 mg/L MgCl2, 25 mg/L CaCl2, 0.1% Tween-80) to an OD600 nm of 0.5, then centrifuged again at 10,000×g for 2 mins. The supernatant was removed and the pellets were frozen at −20° C.
Test compounds were prepared in DMSO at a concentration of 10 mg/mL. These compound stocks were diluted into DMSO to a concentration of 25 μg/mL and serial 3-fold dilutions were made in DMSO, for a total of 11 compound concentrations. 20 nL of each compound solution was pre-spotted into a white 384-well plate (50 μL/well polypropylene, Nunc) using acoustic fluid transfer (Echo).
Frozen S. aureus pellets were resuspended in assay buffer (1×PBS, 12.5 mg/L MgCl2, 25 mg/L CaCl2, 0.1% Tween-80) to an OD600 nm of 0.05, then mixed 1:1 (v/v) with 20 μM substrate ((Dabcyl)βAla-KPAKAAE(Edans)) in assay buffer, and this solution was added (20 μL/well) to the 384-well plate that had been pre-spotted with compound. Fluorescence intensity was then immediately read kinetically for 30 minutes with 2 minute read intervals to monitor cleavage of the internally quenched peptide substrate (excitation wavelength=340 nm, emission wavelength=490 nm, Molecular Devices Spectramax M5). Reaction rate (slope) was plotted against inhibitor concentration to derive the IC50.

[5] = ATCC25922, E. coli ATCC 25922, 35° C., 22 hours
[6] = MRSA / NRS 384 / USA300, MRSA USA 300, NRS384, 35° C., 22 hours, cation adjusted Mueller Hinton Broth with 0.002% Tween-80, read-out: MIC (μg/mL) S. aureus
[7] = MRSA / NRS 384 / USA300, 22 h, read-out: MIC (μg/mL) S. aureus

T1 sequence (P0A070 whole entry): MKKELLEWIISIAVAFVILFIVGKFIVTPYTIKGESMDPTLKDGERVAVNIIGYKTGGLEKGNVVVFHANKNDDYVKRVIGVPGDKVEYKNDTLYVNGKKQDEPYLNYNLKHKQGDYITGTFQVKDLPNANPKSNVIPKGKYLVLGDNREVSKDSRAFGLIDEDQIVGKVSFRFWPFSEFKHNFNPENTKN

Row | SMILES | MIC [1] | MIC [2, 5] | MIC [3, 6] | IC50 [4] | MIC ([2]; ATCC25922, 22 h) | MIC [3, 7]
1 | CCCCc1ccc(-c2ccc(C(=O)N[C@@H](CN)C(=O)N(C)[C@@H]3C(=O)N[C@@H](C)C(=O)N[C@H](c4n[nH]c(=O)[nH]4)Cc4ccc(OCCN)c(c4)-c4cc3ccc4OCCN)cc2)cc1 [Compound 126] | 0.031 µg/mL (≈ 0.036 µM) | 1 µg/mL (≈ 1.16 µM) | 4 µg/mL (≈ 4.65 µM) | 6.2 nM | – | –
2 | CCCCc1ccc(-c2ccc(C(=O)N[C@@H](CN)C(=O)N(C)[C@@H]3C(=O)N[C@@H](C)C(=O)N[C@H](c4nnn[nH]4)Cc4ccc(OCCN)c(c4)-c4cc3ccc4OCCN)cc2)cc1 [Compound 123] | < 0.063 µg/mL | 8 µg/mL (≈ 9.46 µM) | 1.5 µg/mL (≈ 1.77 µM) | 15 nM | – | –
3 | CCCCc1ccc(-c2ccc(C(=O)N[C@@H](CCCN)C(=O)N(C)[C@@H]3C(=O)N[C@@H](C)C(=O)N[C@H](C(=O)NC#N)Cc4ccc(OCCN)c(c4)-c4cc3ccc4OCCN)cc2)cc1 [Compound 134] | 0.13 µg/mL (≈ 0.149 µM) | 4 µg/mL (≈ 4.58 µM) | 1 µg/mL (≈ 1.14 µM) | 7.1 nM | – | –
4 | CCCCc1ccc(-c2ccc(C(=O)N[C@@H](CCCN)C(=O)N(C)[C@@H]3C(=O)N[C@@H](C)C(=O)N[C@H](C(=O)NS(N)(=O)=O)Cc4ccc(OCCN)c(c4)-c4cc3ccc4OCCN)cc2)cc1 [Compound 128] | 0.012 µg/mL (≈ 0.0129 µM) | – | – | 1.5 nM | 0.75 µg/mL (≈ 0.808 µM) | 1.5 µg/mL (≈ 1.62 µM)
5 | CCCCc1ccc(-c2ccc(C(=O)N[C@@H](CN)C(=O)N(C)[C@@H]3C(=O)N[C@@H](C)C(=O)N[C@H](CC#N)Cc4ccc(OCCN)c(c4)-c4cc3ccc4OCCN)cc2)cc1 [Compound 127] | 2 µg/mL (≈ 2.45 µM) | 32 µg/mL (≈ 39.2 µM) | 2 µg/mL (≈ 2.45 µM) | 2.7 nM | – | –
6 | CCCCCCCCCCCCCC(=O)N[C@@H](CCCCN)C(=O)N(C)[C@@H]1C(=O)N[C@@H](C)C(=O)N[C@H](C(=O)NCCC#N)Cc2ccc(OCCN)c(c2)-c2cc1ccc2OCCN [Compound 120] | 0.5 µg/mL (≈ 0.562 µM) | 16 µg/mL (≈ 18 µM) | 2 µg/mL (≈ 2.25 µM) | 18 nM | – | –
7 | CCCCc1ccc(-c2ccc(C(=O)N[C@@H](CN)C(=O)N(C)[C@@H]3C(=O)N[C@@H](C)C(=O)N[C@H](c4noc(=O)[nH]4)Cc4ccc(OCCN)c(c4)-c4cc3ccc4OCCN)cc2)cc1 [Compound 125] | 0.036 µg/mL (≈ 0.0418 µM) | 0.5 µg/mL (≈ 0.58 µM) | 0.38 µg/mL (≈ 0.441 µM) | 1 nM | – | –
8 | CCCCCCCCc1ccc(C(=O)N[C@@H](CCN)C(=O)N(C)[C@@H]2C(=O)N[C@@H](C)C(=O)N[C@H](c3noc(=S)[nH]3)Cc3ccc(OCCN)c(c3)-c3cc2ccc3OCCN)c(C)c1 [Compound 133] | 0.094 µg/mL (≈ 0.106 µM) | 8 µg/mL (≈ 9.03 µM) | 1 µg/mL (≈ 1.13 µM) | 2.3 nM | – | –
9 | CCCCCCCCc1ccc(C(=O)N[C@@H](CCN)C(=O)N(C)[C@@H]2C(=O)N[C@@H](C)C(=O)N[C@H](C(=O)NOC)Cc3ccc(OCCN)c(c3)-c3cc2ccc3OCCN)c(C)c1 [Compound 113] | 0.047 µg/mL (≈ 0.0547 µM) | – | – | 1.2 nM | 4 µg/mL (≈ 4.66 µM) | 0.063 µg/mL (≈ 0.0733 µM)
10 | CCCCc1ccc(-c2ccc(C(=O)N[C@@H](CN)C(=O)N(C)[C@@H]3C(=O)N[C@@H](C)C(=O)N[C@H](C#N)Cc4ccc(OCCN)c(c4)-c4cc3ccc4OCCN)cc2)cc1 [Compound 124] | 0.5 µg/mL (≈ 0.623 µM) | 8 µg/mL (≈ 9.96 µM) | 1 µg/mL (≈ 1.25 µM) | 14 nM | – | –
11 | CCCCc1ccc(-c2ccc(C(=O)N[C@@H](CCCN)C(=O)N(C)[C@@H]3C(=O)N[C@@H](C)C(=O)N[C@H](C(=O)NN)Cc4ccc(OCCN)c(c4)-c4cc3ccc4OCCN)cc2)cc1 [Compound 137] | 0.094 µg/mL (≈ 0.109 µM) | – | – | 1.4 nM | 3 µg/mL (≈ 3.47 µM) | 0.5 µg/mL (≈ 0.579 µM)
12 | CCCCCCCCCCCCCC(=O)N[C@@H](CCN)C(=O)N(C)[C@@H]1C(=O)N[C@@H](C)C(=O)N[C@H](c2noc(=O)[nH]2)Cc2ccc(OCCN)c(c2)-c2cc1ccc2OCCN [Compound 143] | 0.023 µg/mL (≈ 0.0271 µM) | 0.5 µg/mL (≈ 0.588 µM) | 0.13 µg/mL (≈ 0.153 µM) | 1.5 nM | – | –
13 | CCCCc1ccc(-c2ccc(C(=O)N[C@@H](CCCN)C(=O)N(C)[C@@H]3C(=O)N[C@@H](C)C(=O)N[C@H](C(=O)NO)Cc4ccc(OCCN)c(c4)-c4cc3ccc4OCCN)cc2)cc1 [Compound 136] | 0.13 µg/mL (≈ 0.15 µM) | – | – | 1.2 nM | 2 µg/mL (≈ 2.31 µM) | 0.38 µg/mL (≈ 0.439 µM)
14 | CCCCc1ccc(-c2ccc(C(=O)N[C@@H](CCCN)C(=O)N(C)[C@@H]3C(=O)N[C@@H](C)C(=O)N[C@H](c4ncc(C#N)[nH]4)Cc4ccc(OCCN)c(c4)-c4cc3ccc4OCCN)cc2)cc1 [Compound 139] | 1.5 µg/mL (≈ 1.67 µM) | 24 µg/mL (≈ 26.8 µM) | 1 µg/mL (≈ 1.11 µM) | 110 nM | – | –
15 | C#CCNC(=O)[C@@H]1Cc2ccc(OCCN)c(c2)-c2cc(ccc2OCCN)[C@H](N(C)C(=O)[C@H](CCCN)NC(=O)c2ccc(-c3ccc(CCCC)cc3)cc2)C(=O)N[C@@H](C)C(=O)N1 [Compound 129] | 0.094 µg/mL (≈ 0.106 µM) | – | – | 2.2 nM | 4 µg/mL (≈ 4.51 µM) | 0.5 µg/mL (≈ 0.564 µM)
16 | CCCCCCCCc1ccc(C(=O)N[C@@H](CCN)C(=O)N(C)[C@@H]2C(=O)N[C@@H](C)C(=O)N[C@H](c3noc(=O)[nH]3)Cc3ccc(OCCN)c(c3)-c3cc2ccc3OCCN)c(C)c1 [Compound 131] | 0.0078 µg/mL (≈ 0.00896 µM) | 0.5 µg/mL (≈ 0.575 µM) | 0.094 µg/mL (≈ 0.108 µM) | 2.1 nM | – | –
17 | CCCCc1ccc(-c2ccc(C(=O)N[C@@H](CCCCN)C(=O)N(C)[C@@H]3C(=O)N[C@@H](C)C(=O)N[C@H](C(=O)Nc4ccncc4C#N)Cc4ccc(OCCN)c(c4)-c4cc3ccc4OCCN)cc2)cc1 [Compound 121] | 0.25 µg/mL (≈ 0.259 µM) | 8 µg/mL (≈ 8.29 µM) | 4 µg/mL (≈ 4.14 µM) | 12 nM | – | –
18 | CCCCc1ccc(-c2ccc(C(=O)N[C@@H](CCCN)C(=O)N(C)[C@@H]3C(=O)N[C@@H](C)C(=O)N[C@H](c4ncc(C(F)(F)F)[nH]4)Cc4ccc(OCCN)c(c4)-c4cc3ccc4OCCN)cc2)cc1 [Compound 140] | 1 µg/mL (≈ 1.06 µM) | 32 µg/mL (≈ 34 µM) | 4 µg/mL (≈ 4.25 µM) | 370 nM | – | –
